Measured values: article PMC9995496, “A screen for MeCP2-TBL1 interaction inhibitors using a luminescence-based assay” (Scientific Reports, 2023)
Where a name gives a salt, the structure may show the parent alone. Read-outs that look alike come from different tables or passages of the source. Numbered stars: 1 amine (or outer) side, 2 acyl side, 3 side chain; on linkers, the order of the positions; unused ones are H or OH. Bridge positions count the residues as written; N and C are the ends. Square brackets hold non-standard residues; d marks the D form. Peptide text beside a SMILES is read from it. I, II: the chains in the order shown. * marks the point of attachment. Actinocin(9to1) = Cc1c2oc3c(C)ccc(C(=O)[*:1])c3nc-2c(C(=O)[*:2])c(N)c1=O; NMeV = CN[C@H](C(=O)O)C(C)C; Cbz = O=C(OCc1ccccc1)*; Sar = CNCC(=O)O

Tested on: PRKACA-PRKAR2A interaction (SmBiT-PRKACA / LgBiT-PRKAR2A), protein kinase A
Parameters: NanoLuc complementation counter-screen in cell extract, PRKACA with PRKAR2A, loss of luminescence, detects NanoLuc interference
Conditions: 0.5 h, 20 µM, inhibitor
[1] = counter-screen for NanoLuc interference
[2] = counter-screen for NanoLuc interference, Inh (PKA)

| Compound | Inh (PKA) [1] [%] | other results |
| --- | --- | --- |
| O=C(O)Cn1nnc(-c2cc(N3CCC(Oc4cc(F)ccc4Br)CC3)no2)n1 [UM0141800:01, MK-8245] | 15.63 |  |
| C[C@]12CC[C@H]3[C@@H](CC[C@@]45O[C@@H]4C(O)=C(C#N)C[C@]35C)[C@@H]1CC[C@@H]2O [UM0141801:01, Trilostane] | 1.891 |  |
| C#CCC(Cc1cnc2nc(N)nc(N)c2n1)c1ccc(C(=O)N[C@@H](CCC(=O)O)C(=O)O)cc1 (stereo partly drawn) [UM0141802:01, Pralatrexate] | 2.023 |  |
| O=C(NNc1ccccc1)c1ccncc1 [UM0141803:01, PluriSIn #1 (NSC 14613)] | 1.467 |  |
| O=C1CN2Cc3c(ccc(Cl)c3Cl)N=C2N1 [UM0141804:01, Anagrelide HCl] | 2.161 |  |
| CC(C)C[C@@H](C(=O)N[C@H](C(=O)OC1CCCC1)c1ccccc1)[C@H](O)C(=O)NO [UM0141805:01, Tosedostat (CHR2797)] | 5.594 |  |
| CCc1c(C(=O)C(N)=O)c2c(OCC(=O)O)cccc2n1Cc1ccccc1 [UM0141806:01, Varespladib (LY315920)] | 1.134 |  |
| NS(=O)(=O)c1ccc(NC(=O)Nc2ccc(F)cc2)cc1 [UM0141807:01, U-104] | 3.096 |  |
| CC1(C)O[C@@H]2[C@@H](CO[C@@]3(COS(N)(=O)=O)OC(C)(C)O[C@@H]23)O1 [UM0141808:01, Topiramate] | 0.4952 |  |
| CC(C)n1c(/C=C/[C@@H](O)C[C@@H](O)CC(=O)O)c(-c2ccc(F)cc2)c2ccccc21 [UM0141809:01, Fluvastatin Sodium] | 14.88 |  |
| C#CCN[C@@H]1CCc2ccccc21 [UM0141810:01, Rasagiline Mesylate] | 2.611 |  |
| C[C@H](NCc1ccc(OCc2cccc(F)c2)cc1)C(N)=O [UM0141812:01, Safinamide Mesylate] | 2.51 |  |
| CC[C@H](C)C(=O)O[C@H]1C[C@H](O)C=C2C=C[C@H](C)[C@H](CC[C@@H](O)C[C@@H](O)CC(=O)O)[C@H]21 [UM0141813:01, Pravastatin sodium] | 0.8236 |  |
| NC(=O)c1cccc(-c2cccc(OC(=O)NC3CCCCC3)c2)c1 [UM0141814:01, URB597] | 16.26 |  |
| COc1cc(F)c(C(C)C)cc1-c1ccc(C(F)(F)F)cc1CN1C(=O)O[C@H](c2cc(C(F)(F)F)cc(C(F)(F)F)c2)[C@@H]1C [UM0141816:01, Anacetrapib (MK-0859)] | -2.323 |  |
| CCC(CC)CC1(C(=O)Nc2ccccc2SC(=O)C(C)C)CCCCC1 [UM0141817:01, Dalcetrapib (JTT-705, RO4607381)] | 16.33 |  |
| Cc1cc(C)c2c(c1)[C@@H](N(Cc1cc(C(F)(F)F)cc(C(F)(F)F)c1)c1nnn(C)n1)CCCN2C[C@H]1CC[C@H](C(=O)O)CC1 [UM0141818:01, Evacetrapib (LY2484595)] | 12.81 |  |
| CCOC(=O)N1c2ccc(C(F)(F)F)cc2[C@@H](N(Cc2cc(C(F)(F)F)cc(C(F)(F)F)c2)C(=O)OC)C[C@H]1CC [UM0141819:01, Torcetrapib] | 4.254 |  |
| NC(=O)N1CCC(CC(=O)N2CCC([C@H]3c4ncc(Br)cc4CCc4cc(Cl)cc(Br)c43)CC2)CC1 [UM0141820:01, Lonafarnib] | 11.04 |  |
| O=C(/C=C/c1cccnc1)NCCCCC1CCN(C(=O)c2ccccc2)CC1 [UM0141821:01, FK866 (APO866)] |  | Inh (PKA) [2]: 3.817% |
| O=C(Nc1ccccc1)Nc1ccc(-c2ccc(C(=O)[C@@H]3CCC[C@H]3C(=O)O)cc2)cc1 [UM0141822:01, A922500] | 32.88 |  |
| Cc1ccc(C(=O)c2cc(O)c(O)c([N+](=O)[O-])c2)cc1 [UM0141823:01, Tolcapone] | 63.96 |  |
| Nc1ncnc2c1C(=O)N(c1ccc([C@H]3CC[C@H](CC(=O)O)CC3)cc1)CCO2 [UM0141824:01, PF-04620110] | 1.569 |  |
| CC(C)c1cc(-c2n[nH]c(=O)n2-c2ccc3c(ccn3C)c2)c(O)cc1O [UM0141825:01, Ganetespib (STA-9090)] | 30.75 |  |
| CN(NC(=O)CC(=O)NN(C)C(=S)c1ccccc1)C(=S)c1ccccc1 [UM0141826:01, Elesclomol (STA-4783)] | 1.652 |  |
| N#Cc1ccc(COC[C@H]2O[C@@H](n3c(NCc4ccc(Cl)c(Cl)c4)nc4c(N)ncnc43)[C@H](O)[C@@H]2O)cc1 [UM0141827:01, VER 155008] | 36.57 |  |
| CC[C@@H](C)Nc1cc(C(=O)N[C@H]2C[C@H]3CC[C@@H](C2)N3c2ccc(C(=O)C3CC3)cn2)c(C)cc1C(N)=O [UM0141828:01, XL-888] | 5.956 |  |

| Compound | Inh (PKA) [1] [%] | other results |
| --- | --- | --- |
| Nc1nc2[nH]cc(CCc3ccc(C(=O)N[C@@H](CCC(=O)O)C(=O)O)cc3)c2c(=O)[nH]1 [UM0141829:01, Pemetrexed] |  | Inh (PKA) [2]: -0.0222% |
| CC(=O)O[C@@]12CO[C@@H]1C[C@H](O)[C@@]1(C)C(=O)[C@H](O)C3=C(C)[C@@H](OC(=O)[C@H](O)[C@@H](NC(=O)OC(C)(C)C)c4ccccc4)C[C@@](O)([C@@H](OC(=O)c4ccccc4)[C@H]21)C3(C)C [UM0141830:01, Docetaxel] |  | Inh (PKA) [2]: 0.7441% |
| CO[C@@H]1[C@H](OC(=O)/C=C/C=C/C=C/C=C/C(=O)O)CC[C@]2(CO2)[C@H]1[C@@]1(C)O[C@@H]1CC=C(C)C [UM0141832:01, Fumagillin] | 0.06739 |  |
| CC(C)[C@H](NC(=O)OCc1ccccc1)C(=O)N[C@H](C=O)Cc1ccccc1 [UM0141833:01, MDL 28170] (Cbz-Val-Phe-aldehyde) | 3.195 |  |
| N#Cc1ccc(NCCNCC(=O)N2CCC[C@H]2C#N)nc1 [UM0141834:01, NVP DPP 728 dihydrochloride] | -0.6384 |  |
| Cc1c2oc3c(C)ccc(C(=O)N[C@@H]4C(=O)N[C@H](C(C)C)C(=O)N5CCC[C@H]5C(=O)N(C)CC(=O)N(C)[C@@H](C(C)C)C(=O)O[C@@H]4C)c3nc-2c(C(=O)N[C@@H]2C(=O)N[C@H](C(C)C)C(=O)N3CCC[C@H]3C(=O)N(C)CC(=O)N(C)[C@@H](C(C)C)C(=O)O[C@@H]2C)c(N)c1=O [UM0141835:01, Actinomycin D] (I: T[dV]P[Sar][NMeV] / II: T[dV]P[Sar][NMeV]; ester I:1-I:C, II:1-II:C; linker I:N-II:N via Actinocin(9to1)) | 21.28 |  |
| COc1cc(-n2c(=S)[nH]c3ccccc3c2=O)c(Cl)cc1Cl [UM0141840:01, Mdivi 1] | 54.95 |  |
| O=C1C2CCN(CC2)C1(CO)CO [UM0141841:01, PRIMA-1] | 1.308 |  |
| COCC1(CO)C(=O)C2CCN1CC2 (stereo not drawn) [UM0141842:01, PRIMA-1MET] | 2.921 |  |
| COc1ccc(CCc2nc3cc(-c4c(C)noc4C)ccc3n2C[C@H](C)N2CCOCC2)cc1Cl [UM0141843:01, SGC-CBP30] | 18.44 |  |
| CC(=O)SCC(=O)c1ccc(NS(=O)(=O)c2ccc(OCCCN(C)C)cc2)nc1 [UM0141844:01, KD 5170] | 2.048 |  |
| Cc1cc(C)cc(C(=O)NOCCCCCC(=O)NO)c1 [UM0141845:01, LMK 235] | -1.396 |  |
| Cc1ccc(NC(=O)CCCCCC(=O)Nc2ccccc2N)cc1 [UM0141846:01, TC-H 106] | 6.356 |  |
| COc1cc2c(NC3CCN(C)CC3)nc(N3CCCN(C)CC3)nc2cc1OCCCN(C)C [UM0141847:01, UNC 0224] | 3.563 |  |
| O=S(=O)(NCCSSCCNS(=O)(=O)c1cc(Cl)ccc1Cl)c1cc(Cl)ccc1Cl [UM0141849:01, KC7F2] | 19.45 |  |
| BrC1C(Br)C(Br)C(Br)C(Br)C1Br (stereo not drawn) [UM0141851:01, 1,2,3,4,5,6-Hexabromocyclohexane] | 6.156 |  |
| CC(C)(O)/C=C/C(=O)[C@](C)(O)[C@H]1[C@H](O)C[C@@]2(C)[C@@H]3CC=C4[C@@H](C=C(O)C(=O)C4(C)C)[C@]3(C)C(=O)C[C@]12C [UM0141852:01, Cucurbitacin I] |  | Inh (PKA): -0.1004% |
| C=CC(=O)c1ccc2ccccc2c1 [UM0141853:01, ZM 449829] | 8.312 |  |
| N#Cc1c(-c2ccccc2)cc(-c2cc(Br)ccc2O)[nH]c1=O [UM0141854:01, TCS PIM-1 1] | 47.09 |  |
| COc1ccc(-n2c(SCCCN3C(=O)c4cccc5cccc(c45)C3=O)nnc2-c2ccncc2)cc1 [UM0141857:01, WIKI4] | 17.99 |  |
| O=C(/C=C/c1ccccc1)NC(NC(=S)Nc1ccc(Cl)cc1)C(Cl)(Cl)Cl (stereo not drawn) [UM0141858:01, Sal 003] | 56.23 |  |
| O=S(=O)(O)c1ccc2cc(N=Nc3cc(S(=O)(=O)O)c4cccnc4c3O)ccc2c1 [UM0141859:01, NSC 87877] | 48.34 |  |
| OC[C@H]1O[C@@H](c2ccc(Cl)c(Cc3ccc(O[C@H]4CCOC4)cc3)c2)[C@H](O)[C@@H](O)[C@@H]1O [UM0141860:01, Empagliflozin (BI 10773)] | 6.685 |  |
| CC1(C)CNc2cc(NC(=O)c3cccnc3NCc3ccncc3)ccc21 [UM0141862:01, Motesanib Diphosphate (AMG-706)] | 38.44 |  |
| CC(C)(C)c1cc(C(C)(C)C)c(NC(=O)c2c[nH]c3ccccc3c2=O)cc1O [UM0141863:01, Ivacaftor (VX-770)] | 12.69 |  |
| OCCn1cc(-c2ccc3c(c2)CC/C3=N\O)c(-c2ccncc2)n1 [UM0141866:01, GDC-0879] | 3.817 |  |
| CCn1c(-c2nonc2N)nc2c(C#CC(C)(C)O)ncc(OC[C@H]3CCCNC3)c21 [UM0141867:01, GSK690693] | 29.62 |  |
